Experimental data as given in patent US20230146795A1, “ENHANCEMENT OF ANTI-TUMOR ACTIVITY OF SHP2 INHIBITOR PYRIMIDINONE IN COMBINATION WITH NOVEL CANCER MEDICINES IN CANCERS” (TAIHO PHARMACEUTICAL CO., LTD., priority 2020, published 2023).

How the values were obtained:
SHP2 = molecular target: T1, SHP2 (Homo sapiens, UniProt Q06124); test: SHP2 biochemical assay (DiFMUP conversion); conditions: 10 pM SHP2, 0.25 μM pIRS1 peptide, 50 μM DiFMUP
T1 sequence (Q06124 1-593): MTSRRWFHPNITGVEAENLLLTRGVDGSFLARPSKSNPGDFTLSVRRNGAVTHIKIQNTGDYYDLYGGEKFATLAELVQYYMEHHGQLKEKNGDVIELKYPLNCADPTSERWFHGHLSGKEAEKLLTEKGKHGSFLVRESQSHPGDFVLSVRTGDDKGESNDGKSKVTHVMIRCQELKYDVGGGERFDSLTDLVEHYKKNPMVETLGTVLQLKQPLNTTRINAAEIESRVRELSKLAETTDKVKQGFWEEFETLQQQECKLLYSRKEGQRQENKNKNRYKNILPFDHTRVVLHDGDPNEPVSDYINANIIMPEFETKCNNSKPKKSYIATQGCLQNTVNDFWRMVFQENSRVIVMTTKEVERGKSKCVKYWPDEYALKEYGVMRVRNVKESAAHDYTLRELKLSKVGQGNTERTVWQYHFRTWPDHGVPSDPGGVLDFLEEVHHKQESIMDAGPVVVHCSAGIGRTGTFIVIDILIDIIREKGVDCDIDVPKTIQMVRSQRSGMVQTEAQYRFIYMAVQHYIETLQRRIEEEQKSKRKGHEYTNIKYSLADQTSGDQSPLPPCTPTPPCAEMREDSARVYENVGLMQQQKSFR
Protocol: (1) SHP2 Biochemical Assay SHP2 Activity was Monitored by Measuring the Conversion of the Surrogate Substrate 6,8-Difluoromethylumbelliferyl Phosphate (DiEMUP) to the Fluorescent Product, 6,8-Difluoromethylumbelliferone (DiFMU).
SHP2 was pre-incubated with test compounds and the activating peptide pIRS1 (H2N-LN(pY) IDLDLV-(PEG) 8-LST(pY)ASINFQK-amide) for 30 min, prior to addition of the 6,8-difluoromethylumbelliferyl phosphate (DiEMUP), (Thermo Fisher D6567). Final assay concentrations were 10 pM SHP2, 0.25 μM pIRS1 peptide, 50 μM DiFMUP, 25 mM Bis-Tris propane, pH 7.0, 150 mM NaCl, 0.05% (v/v) Tween-20, 0.5 mM TCEP and 5% (v/v) DMSO. Rates of reaction were then measured over 30 min by monitoring fluorescence on a BMG Pherastar reader at excitation 360 nm/emission 450 nm. IC50 values were calculated in singlicate from the normalized dose-response plots using four parameter logistic curve fit. The Experiment for each compound was carried out in one time or multiple times, and the IC50 values were shown as a single value (for a compound measured in a single experiment) or an average value (for a compound measured in multiple experiments).

[1] = test system: pERK levels in HCC827 cells; test: Cellular pERK inhibition assay (In-Cell Western); type: cell-based; conditions: Homo sapiens, relative IC50
Protocol: pERK levels were determined using the In-Cell Western assay. HCC827 cells (ATCC, Manassas, USA) were seeded into 384-well plates at a density of 1×10^4 cells/well in RPMI1640 medium supplemented with 10% FBS and incubated 24 h. Compounds were diluted first in DMSO and then into serum-free medium, before being added to cells in quadruplicate to give a final concentration of 0.2% DMSO. Plates were incubated at 37° C. for the indicated time in a humidified atmosphere of 5% CO2 in air.
Following compound treatment, cells were fixed with formalin neutral buffer solution for 20 minutes at room temperature. Plates were washed three times with 0.1% Triton-X in PBS and cells were blocked for 1 hour with Odyssey blocking buffer (LI-COR, #927-40000). […] Levels of pERK were then expressed as percent of control, using DMSO treated samples as control. The relative IC50 values were calculated in quadruplicate from the normalized dose-response plots using four parameter logistic curve fit. The Experiment for each compound was carried out in one time or multiple times, and the IC50 values were shown as a single value (for a compound measured in a single experiment) or an average value (for a compound measured in multiple experiments).

[2] = test system: human pancreatic cancer cell line MIA PaCa-2 (KRAS mutation); test: Antitumor effect on MIA PaCa-2 tumor subcutaneously implanted to CB17 SCID mouse; type: in vivo
Protocol: MIA PaCa-2 cell line carries KRAS mutation.
A human pancreatic cancer line, MIA PaCa-2 (available from American Type Culture Collection), suspended in a mixture of PBS and Matrigel was subcutaneously implanted to male CB17 SCID mice at 7-10 weeks of age (Charles River UK) at 5×10^6 cells/100 μl/mouse. Tumors were measured with a pair of digital calipers, and tumor volumes (TV) were calculated by applying the formula for ellipsoid. Mice with TV of 146 to 360 mm^3 were assigned to study groups such that average TV was equal among groups.
Oral administration of Compound 1 or its vehicle, and Compound 9 or its vehicle was started on Day 1. Compound 1 was dissolved in an acidified solution of 0.5% (w/v) hydroxypropyl methylcellulose (Sigma) and administered via oral gavage at 6 or 12 mg/kg/day. Compound 9 was suspended in 20% (v/v) PEG200 (Sigma) and 0.5% (w/v) methylcellulose (Sigma) and administered via oral gavage at 50 mg/kg/day. All treatments were given once a day for 21 consecutive days, except for the combination group receiving 12 mg/kg of Compound 1 and 50 mg/kg of Compound 9, in which the animals were treated for 5 days per week for 3 weeks.
Antitumor effects were evaluated by comparing the median relative tumor volumes (RTV) between control- and treated groups. RTV was calculated by dividing TV on any test day by TV on Day 1, expressed as a percentage. T/C (%), as a measure of anti-tumor activity, was calculated by dividing median RTV values of each compound-administered group by median RTV of the control group receiving both vehicles.

[3] = test system: 97 cell lines harboring driver mutations in KRAS; test: In vitro cell line screening, 3D cultures (CellTiter-Glo 3D), KRAS panel; type: cell-based, human; conditions: sensitive = maximum inhibition greater than 50% relative to DMSO, max 3 μM Compound 1, 1 μM Compound 9, 120-hour incubation
Protocol: The effect of Compound 1 in combination with an ERK inhibitor, Compound 9, on 97 cell lines harboring driver mutations in KRAS (G12A, G12C, G12F, G12R, G12S, G12V, G13C, G13D, A59G, Q61H, Q61K, Q61L or A146T) was assessed using the following technique. Cells from human cancer cells lines (from commercial sources such as ATCC or ECCAC) were grown as 3D cultures by seeding cells into round-bottom ultra-low attachment 96-well tissue culture plates (Corning) followed by centrifugation. Cells were allowed to recover for 16-24 hours prior to compound treatment. Compounds or dimethyl sulfoxide (DMSO) were added at various combinations of compound concentrations in a final DMSO concentration of up to 0.5% (v/v). Following a total of 120-hour incubation, CellTiter-Glo 3D Reagent(registered trademark) (Promega) was added. Plates were incubated for 10 minutes with gentle shaking at room temperature to lyse the cells, then incubated for further 40 minutes at room temperature to stabilize luminescence signal. After mixing, the mixture was transferred to a fresh plate and luminescence was determined on EnVision plate reader (Perkin Elmer).
(§1) For both 3D and 2D assays, the combination was tested as matrix of various concentrations of Compound 1 and Compound 9. The maximum concentrations of Compound 1 and Compound 9 used were 3 μM and 1 μM, respectively. Signals were normalized to that of the average of the DMSO control wells. […] For each cell line, the maximum % inhibition values were obtained for Compound 1 alone, Compound 9 alone and the combination of both compounds. The degree of drug interaction (i.e. synergy, additivity or antagonism) was quantified for each cell line by the Bliss independence model using the Synergyfinder R package (Ref: He L. et al. (2018) Methods for High-throughput Drug Combination Screening and Synergy Scoring. In: von Stechow L. (eds) Cancer Systems Biology. Methods in Molecular Biology, vol 1711. Humana Press, New York, N.Y.). For each cell line, a single score metric, the sum of synergy and antagonism across screened drug concentrations (SUM_SYN_ANT) (Ref: Di Veroli G. Y. et al (2016) Bioinformatics 32(18):2866-2868), was calculated. Synergy was defined as a score of 21 or above.

[4] = test system: 394 cell lines that do not depend on KRAS; test: In vitro cell line screening, 2D monolayers (CellTiter-Glo), KRAS-independent panel; type: cell-based, human; conditions: Non-KRAS panel, sensitive = maximum inhibition greater than 50% relative to DMSO, max 3 μM Compound 1, 1 μM Compound 9, 120-hour incubation
Protocol: (§2) Cells from human cancer cells lines (from commercial sources such as ATCC or ECCAC) were grown as 2D monolayers by seeding onto flat-bottom 96-well tissue culture plates (Corning). Cells were allowed to recover for 16-24 hours prior to compound treatment. Compounds or dimethyl sulfoxide (DMSO) were added at various combinations of compound concentrations in a final DMSO concentration of up to 0.5% (v/v). Following a total of 120-hour incubation, CellTiter-Glo reagent(registered trademark) (Promega) was added. Plates were incubated for 10 minutes with gentle shaking at room temperature to lyse the cells, then incubated for further 10 minutes at room temperature to stabilize luminescence signal. After mixing, the mixture was transferred to a fresh plate, and luminescence was determined on EnVision plate reader (Perkin Elmer).
as §1

491 cell lines = test: In vitro cell line screening, both panels overall; type: cell-based, human; conditions: Total panel, sensitive = maximum inhibition greater than 50% relative to DMSO, max 3 μM Compound 1, 1 μM Compound 9, 120-hour incubation
Protocol: as §2, with “as 3D cultures” for “as 2D monolayers”, “seeding cells into round-bottom ultra-low attachment” for “seeding onto flat-bottom”, “plates (Corning) followed by centrifugation.” for “plates (Corning).”, “CellTiter-Glo 3D Reagent(registered” for “CellTiter-Glo reagent(registered”, “further 40” for “further 10”, “fresh plate” for “fresh plate,”
as §2, §1

IC50 (SHP2)	IC50 [1]	Structure (SMILES)	partial regression (tumor shrinkage of 50% or above), mice ([2]; Compound 9 alone 50 mg/kg/day)	T/C ([2]; Compound 9 alone 50 mg/kg/day oral, once a day, Day 18)	tumor response ([2]; Compound 9 alone 50 mg/kg/day, during the treatment period)	Number of cell lines sensitive [3]	Number of cell lines sensitive (% of total) [3]	Number of cell lines sensitive [4]	Number of cell lines sensitive (% of total) [4]	Number of cell lines sensitive (491 cell lines)	Number of cell lines sensitive (% of total) (491 cell lines)
4 nM	35 nM	CCn1cc2c(Cl)c(-c3c[nH]c4nc(N5C[C@H]6CC[C@@H]5[C@@H]6N)n(C)c(=O)c34)ccc2n1 [Compound 3, 2-((1R,4R,7R)-7-amino-2-azabicyclo[2.2.1]heptan-2-yl)-5-(4-chloro-2-ethyl-2H-indazol-5-yl)-3-methyl-3,7-dihydro-4H-pyrrolo[2,3-d]pyrimidin-4-one]	–	–	–	–	–	–	–	–	–
–	–	COc1cc(F)cc([C@@H](CO)NC(=O)[C@@H](C)N2Cc3ccc(-c4nc(NC5CCOCC5)ncc4Cl)cc3C2=O)c1 [Compound 9, (2R)-2-(6-{5-chloro-2-[(oxan-4-yl)amino]pyrimidin-4-yl}-1-oxo-2,3-dihydro-1H-isoindol-2-yl)-N-[(1S)-1-(3-fluoro-5-methoxyphenyl)-2-hydroxyethyl]propanamide]	1 out of 8	29%	tumor stasis	80	82.5%	204	51.8%	284	57.8%
